In patent publication US20200407712A1, “ARRAY-BASED CYCLIC PEPTIDE LIBRARIES” (HealthTell Inc., priority 2018, published 2020):
Each block holds one compound with its values, some of them ahead of it.

Experiments:
Rituximab [1] = experiment: Rituximab binding to biotinyl peptides captured on streptavidin ELISA plates; settings: streptavidin ELISA plate; Rituximab 66.0 to 0.03 nM; absorbance at 450 nm
Description: To confirm Rituximab binding to the sequences identified in Example 22, the peptides in Table 1 were prepared by Fmoc-based solid phase synthesis. Peptides were biotinylated at either the N-terminal or through the […] side chain with a long chain biotin (LCBiot). Biotinylated peptides were bound to streptavidin ELISA plates. Rituximab in PBST was applied to the array in a dilution series ranging from 66.0 to 0.03 nM using three-fold dilution steps. Plates were incubated for 1 hr at 37° C. and washed 3× with PBST. An anti-human IgG-HRP conjugate was applied to the array at 1.0 μg/mL for 1 hr at 37° C. Plates were washed 3× with PBST and TMB substrate applied for 15 min at 37° C. followed by 2N HCl to stop the reaction. Absorbance was read at 450 nm and the median of triplicate wells plotted against mAb concentration in FIG. 19. Rituximab bound constrained peptide HTP115 but not linear version HTP113 or a constrained sequence with LCBiot at the N-terminal (HTP114). Rituximab also binds to HTP116, a biotinylated version of a cyclic disulfide sequence previously reported to bind to Rituximab (Perosa et al. Blood, 2006, 107 (3), 1070-1077).

[2] = intramolecular disulfide formation by ambient air oxidation of bis-Cys peptides on SiO2 array surface after side-chain deprotection (TFA/TMS-OTf) and NH3-gas DKP detachment; fraction oxidized from MALDI relative peak intensities; settings: the molecule shown is the open-chain precursor, none (dry film on SiO2, ambient air), other, 18.0 h, scale: fraction oxidized
Rituximab [3] = experiment: Rituximab binding to constrained peptide arrays
Description: Cyclized and linear microarrays from Click and lactam wafers were probed using a seven point dilution series of Rituximab (Creative Diagnostics, TAB-016) ranging from 24.0 nM to 0.032 nM with threefold steps. Bound Rituximab was detected using an anti-human IgG-Alexa Fluor™ 555 (Thermo-Fisher) at 4.0 nM. All incubation times were for 1 hr and washes between incubation steps were conducted using Phosphate Buffered Saline with 0.05% Tween 20 (PBST). After the secondary detection step, slides were sequentially washed using PBST, distilled water and a 90% isopropanol rinse. Slides were immediately dried by centrifugation following the isopropanol rinse. Imaged arrays were gridded using commercial software to extract intensities from individual features. Data was analyzed using a custom R script. For both chemistries tested, 24.0 nM Rituximab gave the greatest differential between linear and cyclic copies of the same peptide (present on the same array) and was used for example boxplots. […] In the peptide sequence, B and X represent lactam cyclization residues Lys and Glu respectively. Individual feature replicates for BAEANPSX (cyclic) and BAEANPS (linear) from replicate arrays assayed on two separate slides were used to prepare the boxplot. A p-value comparing the replicate feature intensities was calculated using the anova function in R.

Compound: COc1cc(OC)c([P+](CC(=O)N[C@@H](CCCCN)C(=O)N[C@@H](CS)C(=O)N[C@@H](CS)C(=O)N[C@@H](CC(C)C)C(=O)NCCCC[C@@H]2NC(=O)[C@@H]3CCCN3C2=O)(c2c(OC)cc(OC)cc2OC)c2c(OC)cc(OC)cc2OC)c(OC)c1
ring closure, fraction oxidized by MALDI ([2]; 8-membered ring): 0.78

Compound: COc1cc(OC)c([P+](CC(=O)N[C@@H](CS)C(=O)N[C@H](C(=O)N2CCC[C@H]2C(=O)NCC(=O)N[C@@H](Cc2c[nH]cn2)C(=O)N[C@@H](CS)C(=O)NCCCC[C@@H]2NC(=O)[C@@H]3CCCN3C2=O)[C@@H](C)O)(c2c(OC)cc(OC)cc2OC)c2c(OC)cc(OC)cc2OC)c(OC)c1
ring closure, fraction oxidized by MALDI ([2]; 20-membered ring): 0.79

Compound: BAEANPSX
change of Rituximab binding upon Click cyclization (Rituximab [3]; cyclic versus linear feature, Click array): not
change of Rituximab binding upon lactam based cyclization (Rituximab [3]; cyclic versus linear feature, lactam array): increases
Rituximab binding on lactam array (rank among binders) (Rituximab [3]; lactam array, 24.0 nM Rituximab): amongst the top Rituximab binders

Compound: COc1cc(OC)c([P+](CC(=O)N[C@@H](Cc2ccc(O)cc2)C(=O)N[C@@H](CS)C(=O)N[C@@H](CS)C(=O)N[C@@H](CO)C(=O)NCCCC[C@@H]2NC(=O)[C@@H]3CCCN3C2=O)(c2c(OC)cc(OC)cc2OC)c2c(OC)cc(OC)cc2OC)c(OC)c1
ring closure, fraction oxidized by MALDI ([2]; 8-membered ring): 0.7

Compound: COc1cc(OC)c([P+](CC(=O)N[C@@H](CCCCN)C(=O)N[C@@H](CS)C(=O)N2CCC[C@H]2C(=O)NCC(=O)N[C@@H](CS)C(=O)N[C@@H](CC(C)C)C(=O)NCCCC[C@@H]2NC(=O)[C@@H]3CCCN3C2=O)(c2c(OC)cc(OC)cc2OC)c2c(OC)cc(OC)cc2OC)c(OC)c1
ring closure, fraction oxidized by MALDI ([2]; 14-membered ring): 0.73

Compound: COc1cc(OC)c([P+](CC(=O)N[C@@H](CS)C(=O)N[C@@H](CCC(N)=O)C(=O)N2CCC[C@H]2C(=O)NCC(=O)N[C@@H](Cc2ccc(O)cc2)C(=O)N[C@@H](CS)C(=O)NCCCC[C@@H]2NC(=O)[C@@H]3CCCN3C2=O)(c2c(OC)cc(OC)cc2OC)c2c(OC)cc(OC)cc2OC)c(OC)c1
ring closure, fraction oxidized by MALDI ([2]; 20-membered ring): 0.75

Second part, the compound after the results:

Rituximab binding to biotinyl peptide (Rituximab [1]): not
Compound: LCBiot-K(Ac)AEANPSQ amide [HTP113]

Rituximab binding to biotinyl peptide (Rituximab [1]): bound
Compound: cyclo[KεAEANPSQ(LCBiot)] amide [HTP115]

Rituximab binding to biotinyl peptide (Rituximab [1]): binds
Compound: LCBiot-ACPYANPSLC amide (cyclic disulfide) [HTP116, reference compound]

Rituximab binding to biotinyl peptide (Rituximab [1]): not
Compound: LCBiot-cyclo[KeAEANPSQ] [HTP114]
